Here are results for one compound from paper PMC4702177, “Discovering new mTOR inhibitors for cancer treatment through virtual screening methods and in vitro assays” (Scientific Reports, 2016).

The target in experiment [1] is PIK3C2B (PI3K-C2 beta) (Homo sapiens, UniProt O00750). Put plainly: SelectScreen kinase profiling. The settings on record: mean ± SD of triplicate. Type of experiment: biochemical. The source says:
(§1) To characterize the kinase selectivity of compound 17, we profiled its ability to bind to a panel of 24 structurally related kinases using the SelectScreen Kinase Profiling Service (Life Technologies Corporation, Madison, WI).

In experiment [2] the target is CDK2/cyclin A (Homo sapiens, UniProt P24941). Put plainly: SelectScreen kinase profiling. Type of experiment: biochemical. The settings on record: mean ± SD of triplicate.
From the text: as §1

For experiment [3], the target named is PIK3C2A (PI3K-C2 alpha) (Homo sapiens, UniProt O00443). The experiment in a line: SelectScreen kinase profiling. Type of experiment: biochemical. The settings on record: mean ± SD of triplicate.
From the text: as §1

The target in experiment [4] is IKBKB (IKK beta) (Homo sapiens, UniProt O14920). The experiment in a line: SelectScreen kinase profiling. Type of experiment: biochemical. The settings on record: mean ± SD of triplicate.
From the text: as §1

The target of experiment [5] is PRKCB2 (PKC beta II) (Homo sapiens, UniProt P05771). Put plainly: SelectScreen kinase profiling. Type of experiment: biochemical. The settings on record: mean ± SD of triplicate.
From the text: as §1

Experiment [6] deals with AMPK A2/B1/G1 (Homo sapiens, UniProt P54646). Put plainly: SelectScreen kinase profiling. Type of experiment: biochemical. The settings on record: mean ± SD of triplicate.
From the text: as §1

For experiment [7], the target named is PI4KB (PI4K beta) (Homo sapiens, UniProt Q9UBF8). Put plainly: SelectScreen kinase profiling. Type of experiment: biochemical. The settings on record: mean ± SD of triplicate.
From the text: as §1

Experiment [8] has as its target PIK3CD/PIK3R1 (p110 delta/p85 alpha) (Homo sapiens, UniProt O00329). Put plainly: SelectScreen kinase profiling. Type of experiment: biochemical. The settings on record: mean ± SD of triplicate.
From the text: as §1

For experiment [9], the target named is DNA-PK (Homo sapiens, UniProt P78527). Put plainly: SelectScreen kinase profiling. The settings on record: mean ± SD of triplicate. Type of experiment: biochemical.
From the text: as §1

In experiment [10] the target is PRKCB1 (PKC beta I) (Homo sapiens, UniProt P05771). Put plainly: SelectScreen kinase profiling. Type of experiment: biochemical. The settings on record: mean ± SD of triplicate.
From the text: as §1

Experiment [11] concerns the target AKT3 (PKB gamma) (Homo sapiens, UniProt Q9Y243). Put plainly: SelectScreen kinase profiling. Type of experiment: biochemical. The settings on record: mean ± SD of triplicate.
From the text: as §1

In experiment [12] the target is AMPK A1/B1/G1 (Homo sapiens, UniProt Q13131). The experiment in a line: SelectScreen kinase profiling. Type of experiment: biochemical. The settings on record: mean ± SD of triplicate.
From the text: as §1

The target of experiment [13] is PIK3CA/PIK3R1 (p110 alpha/p85 alpha) (Homo sapiens, UniProt P42336). Put plainly: SelectScreen kinase profiling. Type of experiment: biochemical. The settings on record: mean ± SD of triplicate.
From the text: as §1

The target in experiment [14] is RPS6KB1 (p70S6K) (Homo sapiens, UniProt P23443). The experiment in a line: SelectScreen kinase profiling. Type of experiment: biochemical. The settings on record: mean ± SD of triplicate.
From the text: as §1

For experiment [15], the target named is FRAP1 (mTOR) (Homo sapiens, UniProt P42345). The experiment in a line: SelectScreen kinase profiling. The settings on record: mean ± SD of triplicate. Type of experiment: biochemical.
From the text: as §1

Experiment [16] deals with AKT1 (PKB alpha) (Homo sapiens, UniProt P31749). Put plainly: SelectScreen kinase profiling. Type of experiment: biochemical. The settings on record: mean ± SD of triplicate.
From the text: as §1

The target in experiment [17] is AKT2 (PKB beta) (Homo sapiens, UniProt P31751). The experiment in a line: SelectScreen kinase profiling. Type of experiment: biochemical. The settings on record: mean ± SD of triplicate.
From the text: as §1

For experiment [18], the system named is caspase-3 activation and PARP cleavage in HeLa cells. The experiment in a line: Western blot of apoptosis markers. The settings on record: 24 h, compared with control. Type of experiment: cell-based, human. The protocol:
To elucidate the mechanisms of cell death induced by 17, we analyzed the effect of 17 on nuclear morphology using Hoechst 33342 staining. […] This observation allowed for clear discrimination of treated cells from untreated non-apoptotic HeLa cells, which have a normal, round, and unpunctuated nucleus. […] The percentage of apoptotic HeLa cells were 6.5% and 7.7% at the concentrations of 2.74 and 5.48 μM, respectively (Fig. 6d). To further confirm the nuclear morphology observation, Western blotting was used to detect caspase-3 activation and PARP cleavage, two biochemical markers of apoptosis. […] The induction of apoptosis is positively correlated with the concentration of compound 17.
[…] Samples were prepared by lysing PBS-washed cells with RIPA buffer (Beyotime, Haimen, China) consisting of 1% Nonidet P-40, 0.5% sodium deoxycholate, 0.1% SDS, and 50 mM Tris-HCl, pH 7.4, supplemented with NaF, NaVO4, EDTA and a protease inhibitor cocktail (Roche). Proteins were subjected to SDS-PAGE gel electrophoresis and transferred onto a polyvinylidene difluoride membrane (Hybond-P; GE Healthcare Life Sciences, Piscataway, NJ). […] The densitometry of each band was quantified by FluorChem 8000 (AlphaInnotech, San Leandro, CA).

Chain of PIK3C2B (PI3K-C2 beta) (O00750 whole entry): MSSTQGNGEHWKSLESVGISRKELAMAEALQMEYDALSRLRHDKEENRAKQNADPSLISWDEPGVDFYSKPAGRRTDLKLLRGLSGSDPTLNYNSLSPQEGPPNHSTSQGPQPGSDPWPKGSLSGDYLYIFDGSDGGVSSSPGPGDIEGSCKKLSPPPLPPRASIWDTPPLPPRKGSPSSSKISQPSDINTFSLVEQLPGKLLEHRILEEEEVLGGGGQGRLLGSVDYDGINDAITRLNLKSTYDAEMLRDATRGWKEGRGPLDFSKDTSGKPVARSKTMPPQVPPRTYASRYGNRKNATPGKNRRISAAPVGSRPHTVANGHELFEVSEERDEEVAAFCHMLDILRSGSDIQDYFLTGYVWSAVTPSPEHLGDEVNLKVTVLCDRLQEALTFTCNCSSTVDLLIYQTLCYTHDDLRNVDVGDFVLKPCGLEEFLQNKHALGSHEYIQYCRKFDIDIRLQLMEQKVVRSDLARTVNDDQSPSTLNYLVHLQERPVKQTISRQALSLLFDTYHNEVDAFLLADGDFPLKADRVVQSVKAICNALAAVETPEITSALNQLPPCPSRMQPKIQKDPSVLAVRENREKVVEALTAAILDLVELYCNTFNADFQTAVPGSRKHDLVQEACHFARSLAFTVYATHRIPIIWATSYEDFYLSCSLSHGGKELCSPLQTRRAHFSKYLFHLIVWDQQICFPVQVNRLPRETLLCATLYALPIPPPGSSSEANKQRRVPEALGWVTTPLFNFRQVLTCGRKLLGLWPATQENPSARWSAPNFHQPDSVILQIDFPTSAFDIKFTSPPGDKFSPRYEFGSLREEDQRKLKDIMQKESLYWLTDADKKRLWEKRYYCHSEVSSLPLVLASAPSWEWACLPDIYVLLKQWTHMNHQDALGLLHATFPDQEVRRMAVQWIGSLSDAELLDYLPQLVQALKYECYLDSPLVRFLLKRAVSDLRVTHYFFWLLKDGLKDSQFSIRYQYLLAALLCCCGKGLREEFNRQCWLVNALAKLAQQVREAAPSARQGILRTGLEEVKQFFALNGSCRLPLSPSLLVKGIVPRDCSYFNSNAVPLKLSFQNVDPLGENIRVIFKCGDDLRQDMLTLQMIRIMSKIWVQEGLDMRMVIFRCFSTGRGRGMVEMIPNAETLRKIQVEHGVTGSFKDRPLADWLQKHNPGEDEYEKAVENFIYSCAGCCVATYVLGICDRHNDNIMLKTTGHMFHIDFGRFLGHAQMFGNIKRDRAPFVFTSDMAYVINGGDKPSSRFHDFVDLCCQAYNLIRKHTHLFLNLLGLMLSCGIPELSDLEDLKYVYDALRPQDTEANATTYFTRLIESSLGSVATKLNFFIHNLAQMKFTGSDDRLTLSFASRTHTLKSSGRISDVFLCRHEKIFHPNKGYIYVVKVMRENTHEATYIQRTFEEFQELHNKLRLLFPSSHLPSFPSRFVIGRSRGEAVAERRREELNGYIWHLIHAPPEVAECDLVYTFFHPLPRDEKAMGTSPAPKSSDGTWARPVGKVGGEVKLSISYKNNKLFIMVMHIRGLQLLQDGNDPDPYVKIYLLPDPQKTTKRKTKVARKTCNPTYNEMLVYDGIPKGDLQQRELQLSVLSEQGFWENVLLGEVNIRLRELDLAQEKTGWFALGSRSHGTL
Chain of IKBKB (IKK beta) (O14920 whole entry): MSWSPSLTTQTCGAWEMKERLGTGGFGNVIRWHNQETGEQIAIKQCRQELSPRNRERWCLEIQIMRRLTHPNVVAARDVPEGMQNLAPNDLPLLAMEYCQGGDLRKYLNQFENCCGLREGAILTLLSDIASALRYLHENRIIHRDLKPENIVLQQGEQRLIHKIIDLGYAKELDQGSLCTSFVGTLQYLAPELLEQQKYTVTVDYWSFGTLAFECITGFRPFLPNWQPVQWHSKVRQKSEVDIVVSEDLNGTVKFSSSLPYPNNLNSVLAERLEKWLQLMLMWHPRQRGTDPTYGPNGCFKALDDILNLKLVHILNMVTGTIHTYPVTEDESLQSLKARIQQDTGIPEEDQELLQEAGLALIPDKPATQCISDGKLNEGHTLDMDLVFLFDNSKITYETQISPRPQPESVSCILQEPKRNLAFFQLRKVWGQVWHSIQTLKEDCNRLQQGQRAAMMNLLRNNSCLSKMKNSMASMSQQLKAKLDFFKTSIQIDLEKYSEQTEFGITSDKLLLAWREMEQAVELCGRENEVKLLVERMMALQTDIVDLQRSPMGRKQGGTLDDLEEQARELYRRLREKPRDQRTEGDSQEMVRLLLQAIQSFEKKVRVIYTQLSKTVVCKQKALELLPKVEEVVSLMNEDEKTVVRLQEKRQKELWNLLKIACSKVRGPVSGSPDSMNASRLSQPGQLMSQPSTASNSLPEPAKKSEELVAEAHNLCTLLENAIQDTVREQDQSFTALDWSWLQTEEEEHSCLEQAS
Chain of RPS6KB1 (p70S6K) (P23443 whole entry): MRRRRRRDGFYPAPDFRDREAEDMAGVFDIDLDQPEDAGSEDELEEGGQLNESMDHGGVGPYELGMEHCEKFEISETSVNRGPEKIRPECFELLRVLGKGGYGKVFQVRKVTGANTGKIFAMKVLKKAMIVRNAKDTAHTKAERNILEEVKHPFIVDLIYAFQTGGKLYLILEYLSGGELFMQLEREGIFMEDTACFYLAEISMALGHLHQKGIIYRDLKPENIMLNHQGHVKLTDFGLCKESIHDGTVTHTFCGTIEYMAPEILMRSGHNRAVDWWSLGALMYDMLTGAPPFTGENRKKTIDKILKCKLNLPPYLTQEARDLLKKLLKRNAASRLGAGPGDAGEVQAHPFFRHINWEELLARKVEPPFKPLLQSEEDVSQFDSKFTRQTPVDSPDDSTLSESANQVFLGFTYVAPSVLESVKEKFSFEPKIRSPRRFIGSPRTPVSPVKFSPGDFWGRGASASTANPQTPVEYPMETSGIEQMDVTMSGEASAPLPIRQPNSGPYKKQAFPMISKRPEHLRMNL
Chain of AMPK A2/B1/G1 (P54646 whole entry): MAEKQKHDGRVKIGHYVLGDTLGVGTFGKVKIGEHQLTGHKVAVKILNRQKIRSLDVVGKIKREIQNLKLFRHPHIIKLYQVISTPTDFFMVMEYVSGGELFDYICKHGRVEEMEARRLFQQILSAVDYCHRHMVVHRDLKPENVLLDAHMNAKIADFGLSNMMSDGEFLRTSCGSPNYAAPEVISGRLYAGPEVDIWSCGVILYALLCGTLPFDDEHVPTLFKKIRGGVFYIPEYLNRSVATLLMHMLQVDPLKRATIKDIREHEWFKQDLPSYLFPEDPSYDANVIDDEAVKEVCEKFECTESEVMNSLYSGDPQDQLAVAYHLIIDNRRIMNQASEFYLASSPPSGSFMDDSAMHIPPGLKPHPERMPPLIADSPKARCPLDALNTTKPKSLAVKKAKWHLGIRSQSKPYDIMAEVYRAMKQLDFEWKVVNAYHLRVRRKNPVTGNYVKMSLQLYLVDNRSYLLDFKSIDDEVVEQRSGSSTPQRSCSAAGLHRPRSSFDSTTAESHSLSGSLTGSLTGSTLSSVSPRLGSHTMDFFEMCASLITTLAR
Chain of AMPK A2/B1/G1 (Q9Y478 whole entry partner): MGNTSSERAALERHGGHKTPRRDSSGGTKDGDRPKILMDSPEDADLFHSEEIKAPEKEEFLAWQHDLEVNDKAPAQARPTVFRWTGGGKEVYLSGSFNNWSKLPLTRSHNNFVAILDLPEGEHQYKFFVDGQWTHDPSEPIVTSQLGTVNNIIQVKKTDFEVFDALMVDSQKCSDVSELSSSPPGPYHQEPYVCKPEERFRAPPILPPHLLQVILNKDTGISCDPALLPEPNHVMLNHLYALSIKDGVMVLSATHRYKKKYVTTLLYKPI
Chain of AMPK A2/B1/G1 (P54619 whole entry partner): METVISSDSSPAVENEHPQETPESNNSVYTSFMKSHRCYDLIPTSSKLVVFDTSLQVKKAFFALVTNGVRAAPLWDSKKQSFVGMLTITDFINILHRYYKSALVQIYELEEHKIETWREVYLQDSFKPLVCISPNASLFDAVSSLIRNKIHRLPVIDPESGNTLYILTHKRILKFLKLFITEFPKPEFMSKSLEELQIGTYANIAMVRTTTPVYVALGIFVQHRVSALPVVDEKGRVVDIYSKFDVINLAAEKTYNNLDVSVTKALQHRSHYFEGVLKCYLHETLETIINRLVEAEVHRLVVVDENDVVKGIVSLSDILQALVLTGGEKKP
Chain of PRKCB1 (PKC beta I) (P05771 whole entry): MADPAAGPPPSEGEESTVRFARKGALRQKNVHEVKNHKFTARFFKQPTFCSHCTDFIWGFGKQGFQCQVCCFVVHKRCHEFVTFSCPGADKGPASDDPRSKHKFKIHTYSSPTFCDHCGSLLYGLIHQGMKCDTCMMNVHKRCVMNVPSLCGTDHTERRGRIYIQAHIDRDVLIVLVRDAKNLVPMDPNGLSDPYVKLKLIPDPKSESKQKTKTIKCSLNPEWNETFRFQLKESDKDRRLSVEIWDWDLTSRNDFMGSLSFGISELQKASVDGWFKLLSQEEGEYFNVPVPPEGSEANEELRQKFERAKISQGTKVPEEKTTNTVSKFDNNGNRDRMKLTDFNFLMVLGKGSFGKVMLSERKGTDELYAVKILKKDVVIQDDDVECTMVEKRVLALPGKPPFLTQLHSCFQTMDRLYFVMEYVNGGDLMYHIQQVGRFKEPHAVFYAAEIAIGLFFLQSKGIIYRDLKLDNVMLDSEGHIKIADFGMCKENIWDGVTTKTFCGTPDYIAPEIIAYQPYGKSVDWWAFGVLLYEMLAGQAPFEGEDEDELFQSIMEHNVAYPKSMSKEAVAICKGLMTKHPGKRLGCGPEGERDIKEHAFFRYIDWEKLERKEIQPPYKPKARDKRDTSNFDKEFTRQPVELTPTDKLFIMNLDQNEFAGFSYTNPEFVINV

On to `Nc1nn2c(nc(N)c3c(N)n[nH]c32)c1/N=N/c1ccccc1` [Compound 17], for which the inhibition (commonly the change of the read-out against control, counted positive when it falls) at 10 µM in [1] was 39.3 ± 7.29%; in experiment [2], -1.54 ± 1.35%; in experiment [3], 28.6 ± 1.96%; in experiment [4], 11.7 ± 1.62%; in experiment [5] it was 17.7 ± 4.98%; in experiment [6] it was 33.8 ± 4.29%. Besides, the inhibition at 10 µM came out at 31.8 ± 1.18% in experiment [7]; 41.4 ± 0.63% in [8]; 61.9 ± 6.43% in [9]; 9.54 ± 0.09% in experiment [10]; 11.7 ± 0.37% in [11]; 17 ± 3.47% in experiment [12]. For the same compound, the inhibition at 10 µM in experiment [13] was 56.4 ± 4.16%; in [14], -1.25 ± 1.53%; in experiment [15], 16.9 ± 4.99%; in [16], 22.7 ± 9.34%; in experiment [17], 33.6 ± 3.23%. Besides, the “levels of cleaved (activated) caspase-3 and PARP” value in experiment [18] is “markedly increased”.
